From US8076323B2, “Anti-inflammatory agents” (Cambridge Enterprise Limited, priority 2005, dated 2011)
Values belong to the molecule of their own block, whether it stands above or below them. Bridges are numbered along the chain shown (N, C = ends). Where no end group is shown, it is not given here. [ ]: non-standard residue; d: D form.

Columns and labels:
[1] = cited from earlier work
[2] = test system: chemokine-induced migration; conditions: cited from earlier work
[3] = oral route or injection; comparable to dexamethasone; cited from earlier work
[4] = test system: chemokine-induced migration; test: chemokine-induced leukocyte migration in vitro (prior work); format: cell-based; conditions: compared with (S)-3-(undec-10-enoyl)-aminoglutarimide
stability in human serum = format: in vitro ADME; conditions: 37° C.

Molecule: c(DCys-DGin-DIle-DTrp-DLys-DGln-DLys-DPro-DAsp-DLeu-DCys)-NH2 ([dC][dQ][dI][dW][dK][dQ][dK][dP][dD][dL][dC]-NH2; disulfide 1-11 (inferred)) [NR58-3.14.3]
half-life period of clearance from blood plasma ([1]; after intravenous injection): less than 30 minutes | oral bioavailability ([1]; in vivo, po): not orally bioavailable

Molecule: O=C1NCCCC[C@@H]1NC(=O)C12CC3CC(CC(C3)C1)C2 [(S)-3-(1′-adamantanecarbonylamino)caprolactam]
inhibition of leukocyte migration or recruitment in vitro (in words) [2]: potent inhibitor | anti-inflammatory activity in vivo (in words) [3]: powerful anti-inflammatory activity

time completely stable in human serum (stability in human serum): at least 7 days
Molecule: C=CCCCCCCCCC(=O)[C@@H]1CCCNC1=O [(S)-3-(undec-10-enoyl)-tetrahydropyridin-2-one]
potency compared with the parental molecule [4]: considerably reduced potency
